Earlier results in US12667579B2, “Pharmaceutical compositions for clinical nutrition” (BAXTER INTERNATIONAL INC., priority 2021, dated 2026).

Experiments:
[1] = test system: serum alkaline phosphatases
[2] = compounded with 96 mEq/L of calcium chloride
[3] = ingested orally or enterally

Molecule	solubility in acetone (acetone)	solubility in ethanol (ethanol)	solubility in water (water)	amount hydrolyzed each day ([1]; individuals with normal serum alkaline phosphatase, hydrolysis completely in plasma) [mmol]	plasma concentration at which maximum hydrolysis occurs ([1]; plasma, hydrolysis to inorganic phosphate and glycerol) [µM]	concentration up to which SGP is stable in compounded solutions [2]	share of ingested aluminum reaching the blood stream [3] [%]
sodium glycerophosphate [SGP]	essentially insoluble	essentially insoluble	freely soluble	12 to 15	> 700	up to 120 mmol/L	
[Al] [aluminum]							< 1
